This passage reports inhibition results from patent US20080051384A1, “ANTIVIRAL AGENTS” (Genelabs Technologies, Inc., priority 2006, published 2008).

This assay in a line: Replicon Assay (luciferase, ET cell line). Format: cell-based, HCV. As to conditions: Hepatitis C virus; tested at 6.25 μM; inhibition of replication (luciferase activity) relative to no compound control. The protocol:
A cell line, ET (Huh-lucubineo-ET) was used for screening of compounds for inhibiting HCV RNA dependent RNA polymerase. The ET cell line was stably transfected with RNA transcripts harboring a I389luc-ubi-neo/NS3-3′/ET; replicon with firefly luciferase-ubiquitin-neomycin phosphotransferase fusion protein and EMCV-IRES driven NS3-5B polyprotein containing the cell culture adaptive mutations (E1202G; T12801; K1846T) (Krieger at al, 2001 and unpublished). The ET cells were grown in DMEM, supplemented with 10% fetal calf serum, 2 mM Glutamine, Penicillin (100 IU/mL)/Streptomycin (100 μg/mL), 1× nonessential amino acids, and 250 μg/mL G418 (“Geneticin”). They are all available through Life Technologies (Bethesda, Md.). The cells were plated at 0.5-1.0×10^4 cells/well in the 96 well plates and incubated for 24 hrs before adding test compound. The compounds were added to the cells to achieve a final concentration of 0.1 nM to 50 μm and a final DMSO concentration of 0.5%. Luciferase activity was measured 48-72 hours later by adding a lysis buffer and the substrate (Catalog number Glo-lysis buffer E2661 and Bright-Glo luciferase system E2620 Promega, Madison, Wis.). Cells should not be too confluent during the assay. Percent inhibition of replication data was plotted relative to no compound control. Under the same condition, cytotoxicity of the compounds were determined using cell proliferation reagent, WST-1 (Roche, Germany). The compounds showing antiviral activities, but no significant cytotoxicities were chosen to determine EC50 and TC50, the effective concentration and toxic concentration at which 50% of the maximum inhibition is observed. For these determinations, a 10 point, 2-fold serial dilution for each compound was used, which spans a concentration range of 1000 fold. EC50 and similarly the TC50 values were calculated by fitting % inhibition at each concentration to the following equation: % inhibition=100%/[(EC50/[I])^b+1] where b is Hill's coefficient.
For `O=C(O)c1cc2c(s1)c(C1=CCCCC1)c(-c1ccc3nc(-c4ccccc4F)ccc3c1)n2CC(=O)N1CCOCC1` [compound 186, 6-Cyclohex-1-enyl-5-[2-(2-fluoro-phenyl)-quinolin-6-yl]-4-(2-morpholin-4-yl-2-oxo-ethyl)-4H-thieno[3,2-b]pyrrole-2-carboxylic acid], at 6.25 µM the inhibition was 75%.

`Cc1nc(C)c(-c2ccc3cc(-c4c(C5=CCCCC5)c5sc(C(=O)O)cc5n4CC(=O)N4CCOCC4)ccc3n2)s1` [compound 187, 6-Cyclohex-1-enyl-5-[2-(2,4-dimethyl-thiazol-5-yl)-quinolin-6-yl]-4-(2-morpholin-4-yl-2-oxo-ethyl)-4H-thieno[3,2-b]pyrrole-2-carboxylic acid]: the inhibition at 6.25 µM was 63%.

Molecule `O=C(O)c1cc2c(s1)c(C1CCCCC1)c(-c1ccc3nc(-c4ccccc4F)ccc3c1)n2CC(=O)N1CCOCC1` [compound 188, 6-Cyclohexyl-5-[2-(2-fluoro-phenyl)-quinolin-6-yl]-4-(2-morpholin-4-yl-2-oxo-ethyl)-4H-thieno[3,2-b]pyrrole-2-carboxylic acid] registered an inhibition at 6.25 µM of 99%.

Regarding `Cc1nc(C)c(-c2ccc3cc(-c4c(C5CCCCC5)c5sc(C(=O)O)cc5n4CC(=O)N4CCOCC4)ccc3n2)s1` [compound 189, 6-cyclohexyl-5-[2-(2,4-dimethyl-thiazol-5-yl)-quinolin-6-yl]-4-(2-morpholin-4-yl-2-oxo-ethyl)-4H-thieno[3,2-b]pyrrole-2-carboxylic acid], the inhibition at 6.25 µM is 100%. The value for `Cc1nc(C)c(-c2ccc3cc(-c4c(C5CCCCC5)c5sc(C(=O)O)cc5n4CC(=O)N4CCSCC4)ccc3n2)s1` [compound 190, 6-Cyclohexyl-5-[2-(2,4-dimethyl-thiazol-5-yl)-quinolin-6-yl]-4-(2-oxo-2-thiomorpholin-4-yl-ethyl)-4H-thieno[3,2-b]pyrrole-2-carboxylic acid] was 98%. The value for `Cc1nc(C)c(-c2ccc3cc(-c4c(C5CCCCC5)c5sc(C(=O)O)cc5n4CC(=O)N4CCCCC4)ccc3n2)s1` [compound 191, 6-cyclohexyl-5-[2-(2,4-dimethyl-thiazol-5-yl)-quinolin-6-yl]-4-(2-oxo-2-piperidin-1-yl-ethyl)-4H-thieno[3,2-b]pyrrole-2-carboxylic acid] was 97%.
